Assay results: paper PMC12366361, “Biochemical properties of glycerol kinase from the hypersaline-adapted archaeon Haloferax volcanii” (Applied and Environmental Microbiology, 2025)

Tests used:
[1] = target: T1, glycerol kinase (GK, His-GK) (Haloferax volcanii, UniProt D4GYI5); experiment: coupled enzyme kinetics of purified His-GK (Hill fit, n = […]); further DSF stabilization together with glycerol ([…]°C); assay type: biochemical
T1 construct: gene glpK; N-terminal His-tagged GK (His-GK)
T1 sequence (D4GYI5 1-510): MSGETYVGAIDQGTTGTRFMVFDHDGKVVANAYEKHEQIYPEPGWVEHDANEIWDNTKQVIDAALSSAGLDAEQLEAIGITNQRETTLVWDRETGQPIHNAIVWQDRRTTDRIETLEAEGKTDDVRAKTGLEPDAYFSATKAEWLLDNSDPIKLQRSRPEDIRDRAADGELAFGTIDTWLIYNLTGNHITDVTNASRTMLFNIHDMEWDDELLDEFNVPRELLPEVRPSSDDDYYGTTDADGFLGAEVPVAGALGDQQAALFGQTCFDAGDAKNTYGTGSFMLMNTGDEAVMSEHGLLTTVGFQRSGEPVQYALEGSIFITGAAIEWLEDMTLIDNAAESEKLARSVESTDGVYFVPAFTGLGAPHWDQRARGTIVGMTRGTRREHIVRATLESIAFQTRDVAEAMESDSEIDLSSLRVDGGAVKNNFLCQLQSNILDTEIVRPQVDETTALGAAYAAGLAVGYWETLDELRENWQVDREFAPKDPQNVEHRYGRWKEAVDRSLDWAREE

[2] = target: T1, glycerol kinase (GK, His-GK); experiment: coupled enzyme kinetics of purified His-GK (Hill fit, n = […]); supported by DSF shift ([…] to […]°C) and SEC dimer-to-tetramer shift; assay type: biochemical
[3] = target: the molecule itself; experiment: SEC; Superdex 200 Increase 10/300 GL, 50 mM HEPES pH 7.5, 2 M NaCl, 1 mM DTT, without glycerol; 0.3 mL/min; Ni2+-NTA-purified His-GK dialysed against the same buffer; mass from Kav against standards
[4] = target: the molecule itself; experiment: SEC; Superdex 200 Increase 10/300 GL, 50 mM HEPES pH 7.5, 2 M NaCl, 1 mM DTT, with 10% (vol/vol) glycerol; 0.3 mL/min; Ni2+-NTA-purified His-GK dialysed against the same buffer; the isolated tetramer was also kept overnight at 4°C and run again; mass from Kav against standards

**Q.** Nc1ncnc2c1ncn2[C@@H]1O[C@H](COP(=O)(O)OP(=O)(O)OP(=O)(O)O)[C@@H](O)[C@H]1O [ATP] was tested. Which Kd [1] did it give?
**A.** 1.6 ± 0.08 mM

**Q.** For OCC(O)CO [glycerol], which Kd [2] is on record?
**A.** 1.44 ± 0.16 mM

B1: Haloferax volcanii glycerol kinase fused to an N-terminal polyhistidine tag (His-GK) (enzyme, UniProt D4GYI5 1-510, looked up)
chain: T1 sequence (D4GYI5 1-510)
notes: calculated His-GK monomer 56.7 kDa; Found by SEC as a homodimer (no glycerol) or as a homodimer plus a homotetramer (10% glycerol); also called GlpK; H. volcanii GK; source: H. volcanii H1207-pJAM4351 grown in GlyMM, purified (Ni2+-NTA resin, then SEC); not shown: His6, N-terminal, kept
**Q.** What does the source list for B1?
**A.** stoichiometry N [3]: 2; stoichiometry N [4]: 4
